In PubChem BioAssay AID1963980 (Molecular Pharmacology Branch, DTP, NCI, 2024):

Tested on: 475296-252-R-J1-PDC spheroid viability
Experiment: Anticancer human tumor 475296-252-R-J1-PDC patient-derived rectal carcinoma cell line growth inhibition [PI3K]
Conditions: spheroids with HUVEC and MSC; for IC50: curve of first compound; for viability, T/C: stronger effect = lower value
Source text: Combinatorial screen of targeted agents with the PI3K inhibitors inavolisib, alpelisib, duvelisib, and copanlisib in multi-cell type tumor spheroids
A high-throughput screen of multi-cell type tumor spheroids was designed to identify active combinations of targeted small molecules and PI3K pathway inhibitors. Complex spheroids include a stromal component modeled by human endothelial cells (HUVEC) and fibroblasts modeled by human mesenchymal stem cells (MSCs). The concentration ranges selected for each drug and investigational agent were based upon clinically achievable concentrations if the clinical Cmax of the agent was known.
Compounds. The drugs and investigational agents: inavolisib (NSC800729), alpelisib (NSC765974), duvelisib (NSC772469), copanlisib (NSC816437), ipatasertib (NSC767898), afuresertib (NSC778305), talazoparib (NSC767125), sapanisertib (NSC764658), selumetinib (NSC741078), tovorafenib (DAY101, NSC766906), vemurafenib (NSC761431), ravoxertinib (NSC781343), sotorasib (NSC818433), MRTX1133 (NSC 836407), abemaciclib (NSC 768073), palbociclib (NSC758247), venetoclax (NSC 766270), SY5609 (NSC837396), enzalutamide (NSC755605), and darolutamide (NSC825331), were obtained from the National Cancer Institute (NCI) Developmental Therapeutics Program Chemical Repository. The FDA-approved anticancer drug set is available from the NCI Developmental Therapeutics Program. […] The stock solutions were prepared in dimethyl sulfoxide (DMSO, Sigma-Aldrich, St. Louis, MO, cat. D2650) at 800-fold the tested concentration and stored at -70 degrees C prior to their use. All drugs and investigational agents were tested over a range starting from a high concentration at or near the clinical Cmax and decreasing in half-log increments. If the clinical Cmax for an agent had not been determined, the highest concentration tested was 10 microM.
Cell Culture. All cells were maintained in an incubator at 37 degrees C and 5% CO2 with 95% humidity. The PDC lines were cultured according to standard operating procedures established by the NCI PDMR (https://pdmr.cancer.gov/sops/default.htm). All PDCs were thawed and cultured in Matrigel-coated flasks prepared with a working solution of 1X Ham's F-12 nutrient mix, without supplementation (Invitrogen, Waltham, MA, cat. 11765054), 100 U/mL penicillin-streptomycin (Invitrogen, cat. 15140122), and 2.5% Matrigel (Corning Inc., Corning, NY, cat. 354248) for the first three passages. The 354836-022-R-J1-PDC, 475296-252-R-J1-PDC, and 997726-040-R-J2-PDC lines were cultured in 6A media, which includes advanced DMEM/F-12 (Thermo Fisher Scientific, cat. 12634028), 10 mM HEPES (Thermo Fisher Scientific, cat. 15630080), 1X GlutaMAX supplement (Thermo Fisher Scientific, cat. 35050061), 0.1 mg/mL primocin (InvivoGen, San Diego, CA, cat. ant-pm-2), 10% defined fetal bovine serum, heat inactivated (HyClone Laboratories Inc., Logan, UT, cat. SH30070.03HI), 50% L-WRN conditioned media (ATCC, cat. CRL-3276), 1.25 mM N-Acetyl-L-cysteine (Sigma-Aldrich, cat. A9165), 10 mM nicotinamide (Sigma-Aldrich, cat. N0636), 1X B-27 supplement (Thermo Fisher Scientific, cat. 17504044), 1X N-2 supplement (Thermo Fisher Scientific, cat. 17502048), and 10 microM Y-27632 dihydrochloride (Tocris Bioscience, Bristol, United Kingdom, cat. 1254). The 624824-186-R-J2-PDC line was cultured in 6C/Colon 1B media, which includes all 6A media components plus 50 ng/mL human EGF recombinant protein (Thermo Fisher Scientific, cat. PHG0311). […]

[1] = second compound 0.00316 µM, first compound 0.0316 µM
[2] = second compound 0.00316 µM, first compound 0.1 µM
[3] = second compound 0.01 µM, first compound 0.0316 µM
[4] = second compound 0.01 µM, first compound 0.1 µM
[5] = second compound 0.0316 µM, first compound 0.0316 µM
[6] = second compound 0.0316 µM, first compound 0.1 µM
[7] = second compound 0.1 µM, first compound 0.0316 µM
[8] = second compound 0.1 µM, first compound 0.1 µM
[9] = second compound 0.316 µM, first compound 0.0316 µM
[10] = second compound 0.316 µM, first compound 0.1 µM
[11] = second compound 1 µM, first compound 0.0316 µM
[12] = second compound 1 µM, first compound 0.1 µM
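Further: spheroids exposed to agents for seven days before readout.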

With `CC(=O)c1c(C)c2cnc(Nc3ccc(N4CCNCC4)cn3)nc2n(C2CCCC2)c1=O` + CC(Nc1ccc2c(c1)OCCn1cc(N3C(=O)OCC3C(F)F)nc1-2)C(N)=O the IC50 (second compound 0.00316 µM) was over 0.1 µM, the IC50 (second compound 0.01 µM) was over 0.1 µM and the IC50 (second compound 0.0316 µM) was over 0.1 µM. The IC50 (second compound 0.1 µM) was over 0.1 µM, the IC50 (second compound 0.316 µM) was over 0.1 µM and the IC50 (second compound 1 µM) was over 0.1 µM. It also gave a viability, T/C (second compound 0.00316 µM, first compound 0.000316 µM) of 93.5%, a viability, T/C (second compound 0.00316 µM, first compound 0.001 µM) of 86.6% and a viability, T/C (second compound 0.00316 µM, first compound 0.00316 µM) of 101%. For the same compound, the viability, T/C (second compound 0.00316 µM, first compound 0.01 µM) was 93.5%, the viability, T/C [1] was 119% and the viability, T/C [2] was 97.2%. For the same compound, the viability, T/C (second compound 0.01 µM, first compound 0.000316 µM) was 102%, the viability, T/C (second compound 0.01 µM, first compound 0.001 µM) was 91.3% and the viability, T/C (second compound 0.01 µM, first compound 0.00316 µM) was 94%. The viability, T/C (second compound 0.01 µM, first compound 0.01 µM) was 83.2%, the viability, T/C [3] was 97% and the viability, T/C [4] was 100%. For the same compound, the viability, T/C (second compound 0.0316 µM, first compound 0.000316 µM) was 97.5%, the viability, T/C (second compound 0.0316 µM, first compound 0.001 µM) was 101% and the viability, T/C (second compound 0.0316 µM, first compound 0.00316 µM) was 91.3%. It also gave a viability, T/C (second compound 0.0316 µM, first compound 0.01 µM) of 93.5%, a viability, T/C [5] of 104% and a viability, T/C [6] of 110%. The viability, T/C (second compound 0.1 µM, first compound 0.000316 µM) was 90.4%, the viability, T/C (second compound 0.1 µM, first compound 0.001 µM) was 91.8% and the viability, T/C (second compound 0.1 µM, first compound 0.00316 µM) was 100%. For the same compound, the viability, T/C (second compound 0.1 µM, first compound 0.01 µM) was 103%, the viability, T/C [7] was 96.1% and the viability, T/C [8] was 88.6%. The viability, T/C (second compound 0.316 µM, first compound 0.000316 µM) was 93.5%, the viability, T/C (second compound 0.316 µM, first compound 0.001 µM) was 96.2% and the viability, T/C (second compound 0.316 µM, first compound 0.00316 µM) was 83%. The viability, T/C (second compound 0.316 µM, first compound 0.01 µM) was 85.4%, the viability, T/C [9] was 109% and the viability, T/C [10] was 91.7%. The viability, T/C (second compound 1 µM, first compound 0.000316 µM) was 85.4%, the viability, T/C (second compound 1 µM, first compound 0.001 µM) was 90.1% and the viability, T/C (second compound 1 µM, first compound 0.00316 µM) was 87.2%. The viability, T/C (second compound 1 µM, first compound 0.01 µM) was 91.2%, the viability, T/C [11] was 93.2% and the viability, T/C [12] was 100%.
`CNC(=O)c1ccc(N2C(=S)N(c3ccc(C#N)c(C(F)(F)F)c3)C(=O)C2(C)C)cc1F` + CC(Nc1ccc2c(c1)OCCn1cc(N3C(=O)OCC3C(F)F)nc1-2)C(N)=O gave an IC50 (second compound 0.00316 µM) of over 10 µM, an IC50 (second compound 0.01 µM) of over 10 µM and an IC50 (second compound 0.0316 µM) of over 10 µM. The IC50 (second compound 0.1 µM) was over 10 µM, the IC50 (second compound 0.316 µM) was over 10 µM and the IC50 (second compound 1 µM) was over 10 µM. For the same compound, the viability, T/C [1] was 98.4%, the viability, T/C [2] was 85% and the viability, T/C (second compound 0.00316 µM, first compound 0.316 µM) was 102%. It also gave a viability, T/C (second compound 0.00316 µM, first compound 1 µM) of 84.3%, a viability, T/C (second compound 0.00316 µM, first compound 3.16 µM) of 100% and a viability, T/C (second compound 0.00316 µM, first compound 10 µM) of 104%. It also gave a viability, T/C [3] of 95.4%, a viability, T/C [4] of 90.4% and a viability, T/C (second compound 0.01 µM, first compound 0.316 µM) of 102%. For the same compound, the viability, T/C (second compound 0.01 µM, first compound 1 µM) was 93%, the viability, T/C (second compound 0.01 µM, first compound 3.16 µM) was 99.3% and the viability, T/C (second compound 0.01 µM, first compound 10 µM) was 85.1%. The viability, T/C [5] was 94.6%, the viability, T/C [6] was 87.7% and the viability, T/C (second compound 0.0316 µM, first compound 0.316 µM) was 94.2%. It also gave a viability, T/C (second compound 0.0316 µM, first compound 1 µM) of 99.9%, a viability, T/C (second compound 0.0316 µM, first compound 3.16 µM) of 96.9% and a viability, T/C (second compound 0.0316 µM, first compound 10 µM) of 103%. The viability, T/C [7] was 87.1%, the viability, T/C [8] was 93.6% and the viability, T/C (second compound 0.1 µM, first compound 0.316 µM) was 90%. For the same compound, the viability, T/C (second compound 0.1 µM, first compound 1 µM) was 100%, the viability, T/C (second compound 0.1 µM, first compound 3.16 µM) was 97.5% and the viability, T/C (second compound 0.1 µM, first compound 10 µM) was 91.3%. The viability, T/C [9] was 87.7%, the viability, T/C [10] was 93.8% and the viability, T/C (second compound 0.316 µM, first compound 0.316 µM) was 84.9%. For the same compound, the viability, T/C (second compound 0.316 µM, first compound 1 µM) was 94.3%, the viability, T/C (second compound 0.316 µM, first compound 3.16 µM) was 92.5% and the viability, T/C (second compound 0.316 µM, first compound 10 µM) was 90.9%. For the same compound, the viability, T/C [11] was 98.1%, the viability, T/C [12] was 89% and the viability, T/C (second compound 1 µM, first compound 0.316 µM) was 91.3%. For the same compound, the viability, T/C (second compound 1 µM, first compound 1 µM) was 84%, the viability, T/C (second compound 1 µM, first compound 3.16 µM) was 94.3% and the viability, T/C (second compound 1 µM, first compound 10 µM) was 80.8%.
